# According to PMC5795001, “The activity of the C4-dicarboxylic acid chemoreceptor of Pseudomonas aeruginosa is controlled by chemoattractants and antagonists” (Scientific Reports, 2018):
# Entries after “also recorded” stand apart in the source; their conditions may differ.
# Key:
# [1] = system: Pseudomonas aeruginosa PAO1 (wt and PA2652 mutant); test: Growth experiments with ligands as sole carbon source; type: cell-based; details: M9 minimal medium, 10 mM carbon source
# From the text: To evaluate the physiological relevance of the ligands identified, we first addressed the question of whether they could support bacterial growth as sole carbon source. To this end, we conducted growth experiments of the wild type (wt) strain and a mutant defective in PA2652 in minimal medium supplemented with the different ligands as sole carbon sources.
# Bacterial strains used in this study are listed in Supplementary Table S3. Pseudomonas aeruginosa PAO1 and its derivative strains were routinely grown at 37 °C in Luria Broth (LB; 5 g yeast extract l^−1, 10 g Bacto tryptone l^−1 and 5 g NaCl l^−1) or M9 medium supplemented with 1 mM MgSO4, 6 mg l^−1 Fe-citrate, trace elements[81] and 15 mM glucose as carbon source. For growth experiments to assess the capacity of PA2652-LBD ligands to support growth a sole C-source, PAO1 cells were pre-cultured overnight in M9 medium supplemented with 10 mM glucose and washed twice with M9 medium salts, prior to the inoculation of M9 medium containing10 mM of the different carbon sources. When necessary, the pH of the medium was adjusted to 7.0 prior to inoculation. Bacterial growth over the time was monitored using Bioscreen Microbiological Growth Analyser (Oy Growth Curves Ab Ltd, Helsinki, Finland). Escherichia coli strains were grown at 37 °C in LB. Escherichia coli DH5α was used as a host for gene cloning. When appropriate, antibiotics were used at the following final concentrations (in µg ml^−1): kanamycin, 25 (E. coli strains) and 100 (Pseudomonas strains); tetracycline, 40.
# [2] = system: Pseudomonas aeruginosa PAO1 cheA1 mutant; test: Capillary chemotaxis assay, cheA1 mutant; type: cell-based; details: 10 mM L-malic acid
# Experimental: A recent bioinformatic study has predicted that PA2652 signals through the che pathway. To verify this prediction we conducted chemotaxis assays to L-malic acid using the wt strain as well as mutants in cheA1 and cheA2, encoding respectively the histidine kinases of the che and che2 pathways.
# Overnight cultures of P. aeruginosa strains were diluted to an OD660 of 0.05 in MS medium (30 mM Na2HPO4, 20 mM KH2PO4, 25 mM NH4NO3, 1 mM MgSO4) supplemented with 6 mg l^−1 Fe-citrate, trace elements[81] and 15 mM glucose as carbon source, and grown at 37 °C with orbital shaking (200 rpm). At an OD660 of 0.4 ([…]) cultures were centrifuged at 1,700 × g for 5 min and the resulting pellet was washed twice with chemotaxis buffer (50 mM potassium phosphate, […], 0.05% (v/v) glycerol, pH 7.0). Subsequently, the cells were resuspended in the same buffer, adjusted to an OD660 of 0.1 and 230 µl aliquots of the bacterial cultures were placed into 96-well plates. For the quantitative assays, one-microliter capillary tubes (Microcaps, Drummond Scientific, Ref. P1424) were heat-sealed at one end and filled with either the chemotaxis buffer (negative control) or chemotaxis buffer containing the chemoeffectors to test. The capillaries were immersed into the bacterial suspensions at its open end. […] The number of colony forming units was determined after overnight incubation. […]
# PA2652-LBD = target: T1, PA2652-LBD (Pseudomonas aeruginosa, UniProt Q9I0I6); test: Sedimentation velocity analytical ultracentrifugation; design: species or system Pseudomonas aeruginosa PAO1; details: 1 mM L-malic acid, protein 5-20 µM, 7 °C, PIPES buffer
# T1 construct: The DNA fragment encoding the LBD of PA2652 (Lys^34–Thr^205) was amplified; His-tag (vector-encoded by pET28b(+) via NdeI site); made in house; host or cells: Escherichia coli BL21 (DE3)
# T1 sequence (Q9I0I6 34-205): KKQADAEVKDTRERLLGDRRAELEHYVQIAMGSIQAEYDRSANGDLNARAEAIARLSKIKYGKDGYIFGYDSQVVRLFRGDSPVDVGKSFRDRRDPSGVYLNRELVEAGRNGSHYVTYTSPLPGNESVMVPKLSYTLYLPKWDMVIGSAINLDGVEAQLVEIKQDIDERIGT
# Experimental: To address this issue, PA2652-LBD was analysed by sedimentation velocity analytical ultracentrifugation (AUC). Initial experiments were conducted using concentrations of ligand-free protein ranging from 5 to 20 µM. […] The molecular weight extracted from the sedimentation coefficient and the shape was of 41 kDa. Considering that the sequence-derived mass of the PA2652-LBD monomer is 21.5 kDa, the observed species is clearly a protein dimer. Since no shift to higher sedimentation coefficients was measured with increasing protein concentrations (data not shown), the dimer species can be considered stable over the protein concentration range analysed. The above experiments were also performed in the presence of saturating concentrations of L-malic acid.
# Experiments were performed on a Beckman Coulter Optima XL-A analytical ultracentrifuge (Beckman-Coulter, Palo Alto, CA, USA) equipped with UV-visible absorbance detection system, using an An50Ti 8-hole rotor and 12 mm path-length charcoal-filled epon double-sector centrepieces. […] Light at a wavelength of 234 nm was recorded in the absorbance optics mode. […] Buffer density (ρ = 1.0015 g/mL) and viscosity (η = 0.01449 Poise) at 7 °C were calculated from the buffer composition using SEDNTERP software. […]
compound,measurement,setting,value
O=C(O)C[C@H](O)C(=O)O [L-malic acid],Ability to support bacterial growth as sole carbon source,[1],able to efficiently sustain growth
same,Chemotaxis in cheA1 mutant,[2],abolished chemotaxis; also recorded: no response was observed
same,Effect of ligand binding on oligomerization state of PA2652-LBD,PA2652-LBD,does not have any significant effects on the oligomerization state
